Holding throughout (experiment): relative viability (nuclei count vs DMSO), 5 days (fraction); higher = more cells survive
Compound in the experiment “Pictilisib + OSI-027”: CS(=O)(=O)N1CCN(Cc2cc3nc(-c4cccc5[nH]ncc45)nc(N4CCOCC4)c3s2)CC1 [Pictilisib] + COc1cccc2cc(-c3nc([C@H]4CC[C@H](C(=O)O)CC4)n4ncnc(N)c34)[nH]c12 [OSI-027] (partner 0.5 µM)
The method, boiled down:
(§1)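 Lung cancer cell lines, seeded in 1536-well plates, were treated the following day by pin tool with a single drug or with five library-drug doses (not always all listed) in √10 steps on top of a fixed anchor-drug dose. Cells were fixed and nuclei stained in one step after 5 days, and nuclei were counted. Relative viability is the nuclei count for treated wells divided by that for vehicle wells, reported as medians of duplicate plates.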

Compound in the experiment “Pictilisib + Dasatinib”: CS(=O)(=O)N1CCN(Cc2cc3nc(-c4cccc5[nH]ncc45)nc(N4CCOCC4)c3s2)CC1 [Pictilisib] + Cc1nc(Nc2ncc(C(=O)Nc3c(C)cccc3Cl)s2)cc(N2CCN(CCO)CC2)n1 [Dasatinib] (partner 0.075 µM)
Put shortly: as §1

Compound in the experiment “MK-2206 + Navitoclax”: NC1(c2ccc(-c3nc4ccn5c(=O)[nH]nc5c4cc3-c3ccccc3)cc2)CCC1 [MK-2206] + CC1(C)CCC(c2ccc(Cl)cc2)=C(CN2CCN(c3ccc(C(=O)NS(=O)(=O)c4ccc(N[C@H](CCN5CCOCC5)CSc5ccccc5)c(S(=O)(=O)C(F)(F)F)c4)cc3)CC2)C1 [Navitoclax] (partner 0.5 µM)
Put shortly:
as §1

Compound in the experiment “MK-2206 + Phenformin”: NC1(c2ccc(-c3nc4ccn5c(=O)[nH]nc5c4cc3-c3ccccc3)cc2)CCC1 [MK-2206] + N=C(N)NC(=N)NCCc1ccccc1 [Phenformin] (partner 250 µM)
The method, boiled down:
as §1

Compound in the experiment “MK-2206 + Decitabine”: NC1(c2ccc(-c3nc4ccn5c(=O)[nH]nc5c4cc3-c3ccccc3)cc2)CCC1 [MK-2206] + Nc1ncn([C@H]2C[C@H](O)[C@@H](CO)O2)c(=O)n1 [Decitabine] (partner 2 µM)
Put shortly: as §1

As to UMC-11, the relative viability was 0.538 with Pictilisib + OSI-027 (first compound 0.02 µM); 0.526 in the experiment with Pictilisib + OSI-027 (first compound 0.06325 µM); 0.48 with Pictilisib + OSI-027 (first compound 0.6325 µM); 0.383 with Pictilisib + OSI-027 (first compound 2 µM); 0.449 in the experiment with Pictilisib + Dasatinib (first compound 0.02 µM); 0.461 in the experiment with Pictilisib + Dasatinib (first compound 0.06325 µM). The relative viability stood at 0.458 in the experiment with Pictilisib + Dasatinib (first compound 0.6325 µM); 0.515 with Pictilisib + Dasatinib (first compound 2 µM); 0.309 with MK-2206 + Navitoclax (first compound 0.01 µM); 0.327 in the experiment with MK-2206 + Navitoclax (first compound 0.03162 µM); 0.344 with MK-2206 + Navitoclax (first compound 0.3162 µM); 0.29 with MK-2206 + Navitoclax (first compound 1 µM). The relative viability came out at 0.351 with MK-2206 + Phenformin (first compound 0.01 µM); 0.312 in the experiment with MK-2206 + Phenformin (first compound 0.03162 µM); 0.33 with MK-2206 + Phenformin (first compound 0.3162 µM); 0.316 with MK-2206 + Phenformin (first compound 1 µM); 0.669 with MK-2206 + Decitabine (first compound 0.01 µM); 0.643 with MK-2206 + Decitabine (first compound 0.03162 µM). Besides, the figures for the relative viability with MK-2206 + Decitabine (first compound 0.3162 µM) and with MK-2206 + Decitabine (first compound 1 µM) were 0.569 and 0.716, respectively.
